Molecules are shown by their SMILES.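 Grown in 96-well plates, cells were treated for 48 hours with each compound at five concentrations. Insufficient inhibition: endpoint recorded as highest concentration tested. GI50 is the concentration that inhibits growth by half.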 Active and inactive are the calls of the source. Cut-off read from the data, not from the text of the source: active = GI50 up to about 1.1 µM and inactive = higher.

The record followed here is ChEMBL document CHEMBL1201862, “PubChem BioAssay data set” (2004).

Test in all cases: growth of human tumour cells (NCI), 48 h
The test system of assay [1] is T47D.
Assay [2] has as its system HT-29.
Assay [3] relates to DU-145.
The test system of assay [4] is RXF 393.
For assay [5], the system named is OVCAR-3.
In assay [6] the test system is SNB-75.
Assay [7] has as its system SK-MEL-28.
For assay [8], the system named is KM12.
Assay [9] concerns OVCAR-8.
In assay [10] the test system is SW-620.
Assay [11] deals with U-251.
Assay [12] concerns HL-60.
The subject of assay [13] is HOP-92.
Assay [14] concerns NCI-H23.
Assay [15] relates to A498.
Assay [16] has as its system SK-MEL-2.
Assay [17] has as its system SK-MEL-5.
Assay [18] deals with M14.
Assay [19] deals with NCI-H226.
Assay [20] relates to SR.

Turning to `Cc1ccc2nc(N/N=C/c3sccc3C)cc(C)c2c1`, the GI50 in [1] is > 100 µM (inactive); in [2], 5.48 µM (inactive); in [3], > 100 µM (inactive); in assay [4], 61.8 µM (inactive); in assay [5], > 100 µM (inactive); in assay [6], 38.7 µM (inactive). For the same molecule, the GI50 in [7] is > 100 µM (inactive); in [8] it was > 100 µM (inactive); in assay [9], > 100 µM (inactive); in assay [10] it was > 100 µM (inactive); in assay [11] it was 92.7 µM (inactive); in [12], 28.4 µM (inactive). Also, the GI50 is 35 µM (inactive) in assay [13]; > 100 µM (inactive) in assay [14]; > 100 µM (inactive) in [15]; > 100 µM (inactive) in assay [16]; 28.8 µM (inactive) in assay [17]; > 100 µM (inactive) in assay [18]. Further, the GI50 in assay [19] was > 100 µM (inactive).
Turning to `CSc1nc2c(c(=O)[nH]1)N=C(c1ccc(Cl)cc1)CC(c1ccccc1)N2` (centres undefined), the GI50 in assay [2] is 17.3 µM (inactive); in assay [3] it was 20.7 µM (inactive); in [4], 17.2 µM (inactive); in assay [5] it was 15.2 µM (inactive); in assay [6], 12.1 µM (inactive); in assay [7], 17.3 µM (inactive). Also, the GI50 in [8] is 16.4 µM (inactive); in assay [9] it was 16.5 µM (inactive); in [10] it was 18.8 µM (inactive); in assay [11], 17.7 µM (inactive); in assay [20], 37.8 µM (inactive); in [12], 16.7 µM (inactive). Besides, the GI50 is 18.4 µM (inactive) in [13]; 14.7 µM (inactive) in assay [14]; 30.2 µM (inactive) in [15]; 14.1 µM (inactive) in assay [16]; 13.3 µM (inactive) in assay [17]; 16.3 µM (inactive) in assay [18]. Also, in assay [19], the GI50 was 24.8 µM (inactive).
For `Fc1ccc(C(OCCN2CC3CC2CN3CCCc2ccccc2)c2ccc(F)cc2)cc1` (centres undefined), the GI50 in assay [1] is 2.07 µM (inactive); in assay [2], 3.85 µM (inactive); in assay [3], 10.1 µM (inactive); in assay [5] it was 9.98 µM (inactive); in assay [6], 0.955 µM (active); in [7] it was 2.96 µM (inactive). Moreover, the GI50 is 4.85 µM (inactive) in [8]; 3.23 µM (inactive) in [9]; 6.53 µM (inactive) in [10]; 6.71 µM (inactive) in assay [11]; 2.71 µM (inactive) in [12]; 11.9 µM (inactive) in assay [13]. Further, the GI50 in assay [14] is 11.4 µM (inactive); in assay [15] it was 4.98 µM (inactive); in assay [16], 9.95 µM (inactive); in assay [17] it was 1.84 µM (inactive); in [18], 2.02 µM (inactive); in assay [19] it was 7.23 µM (inactive).
For the molecule `Cn1cccc1-c1ccc(-c2ccc(CO)[se]2)[se]1`, the GI50 was 12.6 µM (inactive) in [2]; 17.5 µM (inactive) in assay [3]; 5.66 µM (inactive) in assay [4]; 4.02 µM (inactive) in assay [5]; 6.08 µM (inactive) in assay [6]; 16.6 µM (inactive) in assay [7]. The GI50 in assay [8] was 8.99 µM (inactive); in assay [9], 27.7 µM (inactive); in assay [10], 2.15 µM (inactive); in assay [11] it was 9.53 µM (inactive); in [20] it was 17.1 µM (inactive); in assay [12], 7.35 µM (inactive). Moreover, the GI50 is > 100 µM (inactive) in [13]; 25.9 µM (inactive) in assay [14]; 1.77 µM (inactive) in [15]; 28.8 µM (inactive) in assay [16]; 11.4 µM (inactive) in assay [17]; 16.1 µM (inactive) in [18]. In addition, the GI50 in [19] is 0.307 µM (active).
`CC[C@]12C=CCN3CCC4(c5cc(/N=N/c6ccccc6)c(OC)cc5N(C)[C@H]4[C@@](O)(C(=O)OC)[C@@H]1OC(C)=O)[C@@H]32` (some centres undefined): the GI50 in assay [2] is 16.3 µM (inactive); in [3], 17.6 µM (inactive); in [4], 15.2 µM (inactive); in assay [5], 12.8 µM (inactive); in assay [7], 20.3 µM (inactive); in assay [8], 18.7 µM (inactive). Moreover, the GI50 in assay [9] was 19.5 µM (inactive); in assay [10] it was 23.1 µM (inactive); in assay [11], 15.9 µM (inactive); in [20], 19.4 µM (inactive); in [12], 17.3 µM (inactive); in [13], 15.4 µM (inactive). Moreover, the GI50 in assay [14] was 15.3 µM (inactive); in assay [15], 16.6 µM (inactive); in [16], 17.1 µM (inactive); in [17] it was 19.9 µM (inactive); in [18], 20.6 µM (inactive); in assay [19], 24 µM (inactive).
As for `CCN(CC)CCC(=O)/C=C/c1ccccc1`, the GI50 in assay [2] was 5.05 µM (inactive); in assay [3], 22.5 µM (inactive); in assay [4], 9.25 µM (inactive); in [5], 3.54 µM (inactive); in [6], 13.2 µM (inactive); in assay [7], 15.2 µM (inactive). The GI50 in [8] was 6.5 µM (inactive); in assay [9], 19 µM (inactive); in [10] it was 5.89 µM (inactive); in [11] it was 12 µM (inactive); in [20], 3.41 µM (inactive); in [12] it was 2.55 µM (inactive). The GI50 in assay [13] was 10.4 µM (inactive); in assay [14], 18.2 µM (inactive); in assay [15], 17.8 µM (inactive); in assay [16] it was 23.3 µM (inactive); in assay [17], 18.4 µM (inactive); in assay [18], 15.7 µM (inactive). In addition, the GI50 in assay [19] was 19.4 µM (inactive).
For the molecule `Cn1c2ccccc2c(=O)c2cccc(C(=O)NCC(=O)O)c21`, the GI50 is > 100 µM (inactive) in [1]; > 100 µM (inactive) in [2]; > 100 µM (inactive) in assay [3]; > 100 µM (inactive) in [5]; 88.9 µM (inactive) in assay [6]; > 100 µM (inactive) in assay [7]. Further, the GI50 in [8], in assay [9], in [10], in [11], in assay [20] and in assay [14] was > 100 µM (inactive) in each case. The GI50 in [16] was > 100 µM (inactive); in assay [17], > 100 µM (inactive); in [18] it was > 100 µM (inactive); in [19], 85.9 µM (inactive).
`CCCC(=O)OCC(COC(=O)CCC)OC(=O)CCC` [TRIBUTYRIN]: the GI50 was > 100 µM (inactive) in assay [1]; > 100 µM (inactive) in [2]; 29.9 µM (inactive) in [3]; > 100 µM (inactive) in [4]; > 100 µM (inactive) in assay [5]; 36.7 µM (inactive) in [6]. The GI50 was 66.1 µM (inactive) in assay [7]; > 100 µM (inactive) in [8]; 62.4 µM (inactive) in assay [9]; > 100 µM (inactive) in assay [10]; 53 µM (inactive) in [11]; 33.3 µM (inactive) in assay [12]. Moreover, the GI50 in assay [13] was > 100 µM (inactive); in assay [14] it was > 100 µM (inactive); in assay [15], > 100 µM (inactive); in assay [16], 24.2 µM (inactive); in assay [17] it was 41.8 µM (inactive); in assay [18], 58.5 µM (inactive). Moreover, in [19], the GI50 is > 100 µM (inactive).
Turning to `C/C=C/[C@@]1(OC(=O)c2ccccc2)C[C@@H]2CCCC[C@@H]21`, the GI50 was 18.6 µM (inactive) in assay [1]; 16.3 µM (inactive) in assay [2]; 17.5 µM (inactive) in assay [3]; 14.2 µM (inactive) in assay [6]; 17.9 µM (inactive) in assay [7]; 17.4 µM (inactive) in assay [8]. In addition, the GI50 in assay [9] was 18.5 µM (inactive); in [10], 23 µM (inactive); in [11], 16.3 µM (inactive); in [20], 18.1 µM (inactive); in [12], 14 µM (inactive); in [14] it was 16.5 µM (inactive). In addition, the GI50 in assay [16] was 13.2 µM (inactive); in assay [17], 15.9 µM (inactive); in [18], 17.9 µM (inactive); in [19], 16.5 µM (inactive).
With `CCCCCCCCCCCCCCCCCCNc1ccn(C2OC(CO)C(OP(=O)(O)OCC(O)COP(=O)(O)OCC3OC(n4cc(F)c(NCCCCCCCCCCCCCCCCCC)nc4=O)CC3O)C2O)c(=O)n1` (centres undefined), the GI50 in assay [1], in assay [2], in assay [3], in assay [5], in [6] and in [7] was > 50 µM (inactive) each time. Also, the GI50 in [8], in [9], in assay [10], in assay [11], in [12] and in assay [13] was > 50 µM (inactive) each time. Besides, the GI50 in [14], in assay [15], in assay [16], in [17], in [18] and in [19] was > 50 µM (inactive) throughout.
On to `O=c1cc(N2CCCC2)[nH]c(=O)n1-c1ccc(Cl)cc1`, for which the GI50 in [1], in assay [2], in [3], in assay [4], in assay [5] and in assay [6] was > 100 µM (inactive) throughout. Also, the GI50 in assay [7], in assay [8], in assay [9], in assay [10], in assay [11] and in assay [12] was > 100 µM (inactive) throughout. In addition, the GI50 in [13], in [14], in [15], in [16], in assay [18] and in [19] was > 100 µM (inactive) in each case.
